According to US20240002395A1, “COMPOUNDS AND THEIR USE FOR TREATING NEUROPATHIC PAIN” (The Johns Hopkins University, priority 2020, published 2024):

Tests used:
human MrgprX1 = target: T1, human MrgprX1 (Homo sapiens, UniProt Q96LB2); assay: MrgprX1 positive allosteric modulator (PAM) calcium FLIPR assay in HEK293 cells; type: cell-based; details: PAM activity in presence of EC20 concentration of BAM8-22; HEK293 cells stably transfected with human MrgprX1
T1 construct: expressed in transfected cells
Procedure: HEK293 cells stably transfected with human MrgprX1 were plated onto poly-D-lysine-coated, black-walled, 96-well plates at a seeding density of 12,000 cells/well and grown for two days. On the day of the experiment, cells were incubated with Fluo-4 AM 2 μM, pluronic acid 0.04% and Trypan Red 1% in HBSS (pH 7.4, 100 μL) for 1 h at 37° C. For each different passage of cells, a BAM8-22 dose response was first conducted and the BAM8-22 EC20 determined. Test compounds were then dissolved and serially diluted in DMSO, further diluted with Trypan Red (1%)-containing HBSS (50 μL) and added to cells (0.33% DMSO concentration by volume) to first monitor for agonist activity. After 2.5 min, BAM8-22 at 4-fold EC20 (50 μL) was added to cells (0.25% DMSO concentration by volume) and the cells imaged on the FLIPR for an additional 2 minutes to monitor the test compounds for PAM activity. Finally, data were normalized to fluorescence signals obtained from 250 nM of BAM8-22 (maximum) and BAM8-22 at its EC20 concentration (minimum). EC50 of a test compound was defined as the concentration required to provoke a response halfway between the minimum and maximum response in the presence of EC20 concentration of BAM8-22.

T1 sequence (Q96LB2 whole entry): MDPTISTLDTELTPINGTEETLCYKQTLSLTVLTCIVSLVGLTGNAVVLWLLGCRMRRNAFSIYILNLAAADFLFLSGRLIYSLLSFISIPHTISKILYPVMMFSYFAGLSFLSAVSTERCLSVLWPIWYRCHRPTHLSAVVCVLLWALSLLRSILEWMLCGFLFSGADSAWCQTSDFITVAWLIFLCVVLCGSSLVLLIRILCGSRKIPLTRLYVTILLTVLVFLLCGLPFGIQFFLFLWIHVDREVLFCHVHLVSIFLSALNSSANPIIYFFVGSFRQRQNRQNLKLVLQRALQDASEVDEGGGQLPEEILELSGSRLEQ

SMILES | EC50 (human MrgprX1) | melting point
CC1CCCCC1Oc1ncnc2sc(C(C)(C)C)c(-c3ccc(Cl)c(Cl)c3)c12 (mixture of isomers) [Compound 7ac, 6-tert-butyl-5-(3,4-dichlorophenyl)-4-(2-methylcyclohexyloxy)thieno[2,3-d]pyrimidine] | 0.1 µM | –
Cc1ccccc1Oc1ncnc2oc(-c3ccccc3)cc12 [B, 6-Phenyl-4-(o-tolyloxy)furo[2,3-d]pyrimidine, reference compound] | 1 µM | –
Cc1cccc(Oc2ncnc3oc(-c4ccccc4)cc23)c1C [C, 4-(2,3-Dimethylphenoxy)-6-phenylfuro[2,3-d]pyrimidine, reference compound] | 70 µM | –
CC(C)(C)c1sc2ncnc(OC3CCCCC3)c2c1-c1ccc(Cl)c(Cl)c1 [Compound 7aa, 6-tert-butyl-4-(cyclohexyloxy)-5-(3,4-dichlorophenyl)thieno[2,3-d]pyrimidine] | 0.1 µM | 121 °C
CN1CCCC(Oc2ncnc3sc(C(C)(C)C)c(-c4ccc(Cl)c(Cl)c4)c23)C1 (stereo not shown) [Compound 7ab, 6-tert-butyl-5-(3,4-dichlorophenyl)-4-(1-methylpiperidin-3-yloxy)thieno[2,3-d]pyrimidine] | 6 µM | –
CC(C)(C)c1sc2ncnc(OC3CC4CCC3C4)c2c1-c1ccc(Cl)c(Cl)c1 (stereo not shown) [Compound 7ad, 4-(bicyclo[2.2.1]heptan-2-yloxy)-6-tert-butyl-5-(3,4-dichlorophenyl)thieno[2,3-d]pyrimidine] | 0.3 µM | 152 °C
CC(C)(C)c1sc2ncnc(OC3CCCCCC3)c2c1-c1ccc(Cl)c(Cl)c1 [Compound 7ae, 6-tert-butyl-4-(cycloheptyloxy)-5-(3,4-dichlorophenyl)thieno[2,3-d]pyrimidine] | 0.4 µM | –
CC(C)(C)c1sc2ncnc(OC3CCCCC3C(F)(F)F)c2c1-c1ccc(Cl)c(Cl)c1 (stereo not shown) [Compound 7af, 6-tert-butyl-5-(3,4-dichlorophenyl)-4-(2-(trifluoromethyl)cyclohexyloxy)thieno[2,3-d]pyrimidine] | 0.1 µM | 139 °C
CC(C)(C)c1sc2ncnc(OC3CCCCC3F)c2c1-c1ccc(Cl)c(Cl)c1 (stereo not shown) [Compound 7ag, 6-tert-butyl-5-(3,4-dichlorophenyl)-4-(2-fluorocyclohexyloxy)thieno[2,3-d]pyrimidine] | 0.1 µM | 144 °C
CC(C)(C)c1sc2ncnc(OC3CCCCC3(C)C)c2c1-c1ccc(Cl)c(Cl)c1 (stereo not shown) [Compound 7ah, 6-tert-butyl-5-(3,4-dichlorophenyl)-4-(2,2-dimethylcyclohexyloxy)thieno[2,3-d]pyrimidine] | 0.3 µM | 128 °C
CC(C)(C)c1sc2ncnc(OC3(C(F)(F)F)CCCCC3)c2c1-c1ccc(Cl)c(Cl)c1 [Compound 7ai, 6-tert-butyl-5-(3,4-dichlorophenyl)-4-(1-(trifluoromethyl)cyclohexyloxy)thieno[2,3-d]pyrimidine] | > 10 µM | 142 °C
CC(C)(C)c1sc2ncnc(Oc3ccccc3F)c2c1-c1ccc(F)c(F)c1 [Compound 7aj, 6-tert-butyl-5-(3,4-difluorophenyl)-4-(2-fluorophenoxy)thieno[2,3-d]pyrimidine] | – | 171 °C
CC(C)(C)c1sc2ncnc(Oc3c(F)cccc3F)c2c1-c1ccc(F)c(F)c1 [Compound 7ak, 6-tert-butyl-4-(2,6-difluorophenoxy)-5-(3,4-difluorophenyl)thieno[2,3-d]pyrimidine] | 0.07 µM | 185 °C
CC(C)(C)c1sc2ncnc(Oc3ccccc3OC(F)(F)F)c2c1-c1ccc(F)c(F)c1 [Compound 7am, 6-tert-butyl-5-(3,4-difluorophenyl)-4-(2-(trifluoromethoxy)phenoxy)thieno[2,3-d]pyrimidine] | 0.07 µM | 146 °C
CC(C)(C)c1sc2ncnc(Oc3ccccc3OC(F)(F)F)c2c1-c1ccc(Cl)cc1 [Compound 7an, 6-tert-butyl-5-(4-chlorophenyl)-4-(2-(trifluoromethoxy)phenoxy)thieno[2,3-d]pyrimidine] | 0.08 µM | 136 °C
CC(C)(C)c1sc2ncnc(Oc3c(F)cccc3F)c2c1-c1ccc(Cl)cc1 [Compound 7ap, 6-tert-butyl-5-(4-chlorophenyl)-4-(2,6-difluorophenoxy)thieno[2,3-d]pyrimidine] | 0.03 µM | 176 °C
CC(C)(C)c1sc2ncnc(Oc3ccccc3OC(F)(F)F)c2c1-c1cccc(Cl)c1 [Compound 7aq, 6-tert-butyl-5-(3-chlorophenyl)-4-(2-(trifluoromethoxy)phenoxy)thieno[2,3-d]pyrimidine] | 0.1 µM | 129 °C

SMILES | EC50 (human MrgprX1) | melting point
CC(C)(C)c1sc2ncnc(Oc3c(F)cccc3OC(F)(F)F)c2c1-c1cccc(Cl)c1 [Compound 7ar, 6-tert-butyl-5-(3-chlorophenyl)-4-(2-fluoro-6-(trifluoromethoxy)phenoxy)thieno[2,3-d]pyrimidine] | 0.03 µM | 126 °C
CC(C)(C)c1sc2ncnc(Oc3c(F)cccc3F)c2c1-c1cccc(Cl)c1 [Compound 7as, 6-tert-butyl-5-(3-chlorophenyl)-4-(2,6-difluorophenoxy)thieno[2,3-d]pyrimidine] | 0.05 µM | 146 °C
CC(C)(C)c1sc2ncnc(Oc3c(F)cccc3F)c2c1-c1ccc(F)cc1 [Compound 7at, 6-tert-butyl-4-(2,6-difluorophenoxy)-5-(4-fluorophenyl)thieno[2,3-d]pyrimidine] | 0.07 µM | 186 °C
CC(C)(C)c1sc2ncnc(Oc3ccccc3F)c2c1-c1ccc(F)cc1 [Compound 7au, 6-tert-butyl-4-(2-fluorophenoxy)-5-(4-fluorophenyl)thieno[2,3-d]pyrimidine] | 0.3 µM | 194 °C
CC(C)(C)c1sc2ncnc(Oc3ccccc3OC(F)(F)F)c2c1-c1cccc(F)c1 [Compound 7av, 6-tert-butyl-5-(3-fluorophenyl)-4-(2-(trifluoromethoxy)phenoxy)thieno[2,3-d]pyrimidine] | 0.1 µM | 150 °C
CC(C)(C)c1sc2ncnc(Oc3c(F)cccc3F)c2c1-c1cccc(F)c1 [Compound 7aw, 6-tert-butyl-4-(2,6-difluorophenoxy)-5-(3-fluorophenyl)thieno[2,3-d]pyrimidine] | 0.1 µM | 180 °C
CC(C)(C)c1sc2ncnc(Sc3ccccc3OC(F)(F)F)c2c1-c1ccc(Cl)c(Cl)c1 [Compound 7ax, 6-tert-butyl-5-(3,4-dichlorophenyl)-4-(2-(trifluoromethoxy)phenylthio)thieno[2,3-d]pyrimidine] | 0.2 µM | 165 °C
Cc1nc(Oc2ccccc2)c2ccsc2n1 [Compound 7ay, 2-methyl-4-phenoxythieno[2,3-d]pyrimidine] | 6 µM | 100 °C
CCOC(=O)c1c(C(C)(C)C)sc2ncnc(Oc3c(F)cccc3OC(F)(F)F)c12 [Compound 7be, Ethyl 6-(tert-butyl)-4-(2-fluoro-6-(trifluoromethoxy)phenoxy)thieno[2,3 d]pyrimidine-5-carboxylate] | 0.06 µM | –
CC(C)(C)c1sc2ncnc(Oc3c(F)cccc3OC(F)(F)F)c2c1N1CCCC1 [Compound 7bf, 6-(tert-butyl)-4-(2-fluoro-6-(trifluoromethoxy)phenoxy)-5-(pyrrolidin-1-yl)thieno[2,3-d]pyrimidine] | 0.03 µM | 115 °C
CC1CCCN1c1c(C(C)(C)C)sc2ncnc(Oc3c(F)cccc3OC(F)(F)F)c12 (stereo not shown) [Compound 7bg, 6-(tert-butyl)-4-(2-fluoro-6-(trifluoromethoxy)phenoxy)-5-(2-methylpyrrolidin-1-yl)thieno[2,3-d]pyrimidine] | 0.07 µM | –
CC(C)(C)c1sc2ncnc(Oc3c(F)cccc3OC(F)(F)F)c2c1N1CCCCC1 [Compound 7bh, 6-(tert-butyl)-4-(2-fluoro-6-(trifluoromethoxy)phenoxy)-5-(piperidin-1-yl)thieno[2,3-d]pyrimidine] | 0.04 µM | 133 °C
CC(C)(C)c1sc2ncnc(Oc3ccc([N+](=O)[O-])cc3OC(F)(F)F)c2c1-c1ccc(Cl)c(Cl)c1 [Compound 7f, 6-tert-butyl-5-(3,4-dichlorophenyl)-4-(4-nitro-2-(trifluoromethoxy)phenoxy)thieno[2,3-d]pyrimidine] | > 100 µM | –
COc1ncccc1Oc1ncnc2sc(C(C)(C)C)c(-c3ccc(Cl)c(Cl)c3)c12 [Compound 7i, 6-tert-butyl-5-(3,4-dichlorophenyl)-4-(2-methoxypyridin-3-yloxy)thieno[2,3-d]pyrimidine] | – | 173 °C
CC(C)(C)c1sc2ncnc(Oc3ccccc3C#N)c2c1-c1ccc(Cl)c(Cl)c1 [Compound 7v, 2-(6-tert-butyl-5-(3,4-dichlorophenyl)thieno[2,3-d]pyrimidin-4-yloxy)benzonitrile] | 0.5 µM | –
CN(C)C(=O)COc1ncnc2scc(-c3ccc(F)cc3)c12 [Compound A, 2-((5-(4-Fluorophenyl)thieno[2,3-d]pyrimidin-4-yl)oxy)-N,N-dimethylacetamide, reference compound] | > 100 µM | –
Cc1ccc(Oc2ncnc3sccc23)cc1 [E, 4-(p-Tolyloxy)thieno[2,3-d]pyrimidine, reference compound] | 0.9 µM | –
